Test results from ChEMBL document CHEMBL5352508, “Discovery and Structure-Based Design of Inhibitors of the WD Repeat-Containing Protein 5 (WDR5)-MYC Interaction” (J Med Chem, 2023).
The source made the active and inactive calls. The rule behind the calls is not given here.

Assays:
[1] = molecular target: T1, WDR5-MYC (Homo sapiens, UniProt P61964); assay: Inhibition of N-terminal his-tagged WDR5 (1 to 334 residues) (unknown origin)/Biotin tagged Myc (256-268 residues) (unknown origin) interaction measured after 1 hrs by HTRF assay; assay type: protein assay
[2] = test system: COR-L279; assay: Antiproliferative activity against human COR-L279 cells assessed as cell growth inhibition measured after 72 hrs by CellTier-Glo assay; assay type: functional
[3] = test system: Daudi; assay: Antiproliferative activity against human Daudi cells assessed as cell growth inhibition measured after 72 hrs by CellTier-Glo assay; assay type: functional
[4] = test system: Ramos; assay: Antiproliferative activity against human Ramos cells assessed as cell growth inhibition measured after 72 hrs by CellTier-Glo assay; assay type: functional
[5] = test system: NB-4; assay: Antiproliferative activity against human NB4 cells assessed as cell growth inhibition measured after 72 hrs by CellTier-Glo assay; assay type: functional
[6] = test system: HL-60; assay: Antiproliferative activity against human HL-60 cells assessed as cell growth inhibition measured after 72 hrs by CellTier-Glo assay; assay type: functional
[7] = Microsomal stability in mouse liver microsome assessed as intrinsic clearance; assay type: ADME; settings: liver microsomes, read-out: CLH
[8] = test system: HL-60; assay: Downregulation of RPL17 gene expression in human HL-60 cells measured after 24 hrs by RT-qPCR assay; assay type: functional, cell-based; settings: dose 3-10 µM
[9] = Apparent permeability of the compound in dog MDCKII-LE cells measured upto 1.5 hrs; assay type: ADME, cell-based, Canis lupus familiaris; settings: MDCK
[10] = molecular target: T1, WDR5-MYC; assay: Inhibition of WDR5 (unknown origin)/MYC (unknown origin) interaction; assay type: protein assay
[11] = molecular target: T2, WD repeat-containing protein 5 (Homo sapiens, UniProt P61964); assay: Inhibition of N-terminal his-tagged WDR5 (1 to 334 residues) (unknown origin) measured after 10 mins by HTRF assay
[12] = molecular target: T2, WD repeat-containing protein 5; assay: Inhibition of N-terminal his-tagged WDR5 (1 to 334 residues) (unknown origin) measured after 30 mins by HTRF assay
[13] = molecular target: T2, WD repeat-containing protein 5; assay: Inhibition of N-terminal his-tagged WDR5 (1 to 334 residues) (unknown origin) measured after 90 mins by HTRF assay
[14] = molecular target: T2, WD repeat-containing protein 5; assay: Inhibition of N-terminal his-tagged WDR5 (1 to 334 residues) (unknown origin) measured after 180 mins by HTRF assay
[15] = molecular target: T2, WD repeat-containing protein 5; assay: Inhibition of N-terminal his-tagged WDR5 (1 to 334 residues) (unknown origin) measured after 360 mins by HTRF assay
[16] = molecular target: T2, WD repeat-containing protein 5; assay: Inhibition of N-terminal his-tagged WDR5 (1 to 334 residues) (unknown origin) measured after 10 mins by HTRF assay relative to control
[17] = molecular target: T2, WD repeat-containing protein 5; assay: Inhibition of N-terminal his-tagged WDR5 (1 to 334 residues) (unknown origin) measured after 30 mins by HTRF assay relative to control
[18] = molecular target: T2, WD repeat-containing protein 5; assay: Inhibition of N-terminal his-tagged WDR5 (1 to 334 residues) (unknown origin) measured after 90 mins by HTRF assay relative to control
[19] = molecular target: T2, WD repeat-containing protein 5; assay: Inhibition of N-terminal his-tagged WDR5 (1 to 334 residues) (unknown origin) measured after 180 mins by HTRF assay relative to control
[20] = molecular target: T2, WD repeat-containing protein 5; assay: Inhibition of N-terminal his-tagged WDR5 (1 to 334 residues) (unknown origin) measured after 360 mins by HTRF assay relative to control
[21] = molecular target: WDR5-MYC (Homo sapiens) (UniProt P61964+P01106); assay: Inhibition of flag-tagged WDR5/endogenous MYC interaction in HEK293T cells overexpressing flag tagged WDR5 incubated for 6 hrs by coimmunoprecipitation assay; assay type: cell-based; settings: dose 5-30 µM
[22] = test system: HEK293T; assay: Inhibition of RBBP5/flag-tagged WDR5 interaction in HEK293T cells overexpressing flag-tagged WDR5 upto 30 uM incubated for 6 hrs by coimmunoprecipitation assay; assay type: cell-based; settings: Homo sapiens
[23] = molecular target: T3, Histone-lysine N-methyltransferase 2A/WDR5 (Homo sapiens) (UniProt P61964+Q03164); assay: Inhibition of MLL/flag-tagged WDR5 interaction in HEK293T cells overexpressing flag-tagged WDR5 upto 30 uM incubated for 6 hrs by coimmunoprecipitation assay; assay type: cell-based
[24] = molecular target: T1, WDR5-MYC; assay: Inhibition of his-tagged WDR5/flag-tagged MYC interaction overexpressed in HEK293T cells incubated for 5 hrs; assay type: cell-based
[25] = molecular target: T3, Histone-lysine N-methyltransferase 2A/WDR5 (Homo sapiens); assay: Inhibition of WDR5 (unknown origin)/MLL (unknown origin) interaction by NanoBiT assay; assay type: protein assay
[26] = test system: HL-60; assay: Downregulation of RPL23 gene expression in human HL-60 cells measured after 24 hrs by RT-qPCR assay; assay type: functional, cell-based; settings: dose 3-10 µM
[27] = test system: HL-60; assay: Downregulation of RPL35 gene expression in human HL-60 cells measured after 24 hrs by RT-qPCR assay; assay type: functional, cell-based; settings: dose 3-10 µM
[28] = test system: HL-60; assay: Downregulation of RPL37A gene expression in human HL-60 cells measured after 24 hrs by RT-qPCR assay; assay type: functional, cell-based; settings: dose 3-10 µM
[29] = test system: SHP77; assay: Antiproliferative activity against human SHP77 cells assessed as cell growth inhibition measured after 72 hrs by CellTier-Glo assay; assay type: functional
[30] = test system: NCI-H520; assay: Antiproliferative activity against human NCI-H520 cells assessed as cell growth inhibition measured after 72 hrs by CellTier-Glo assay; assay type: functional
[31] = test system: NCI-H1650; assay: Antiproliferative activity against human NCI-H1650 cells assessed as cell growth inhibition measured after 72 hrs by CellTier-Glo assay; assay type: functional
[32] = test system: HL-60; assay: Effect on MCM4 mRNA expression in human HL-60 cells measured after 24 hrs by RT-qPCR assay; assay type: functional, cell-based
[33] = test system: HL-60; assay: Effect on MCM10 mRNA expression in human HL-60 cells measured after 24 hrs by RT-qPCR assay; assay type: functional, cell-based
[34] = test system: HL-60; assay: Effect on Cdc20 mRNA expression in human HL-60 cells measured after 24 hrs by RT-qPCR assay; assay type: functional, cell-based
[35] = test system: HL-60; assay: Effect on AURKB mRNA expression in human HL-60 cells measured after 24 hrs by RT-qPCR assay; assay type: functional, cell-based

Work on `Cc1cc(=O)c(C(=O)NCc2c(F)cc(-c3cccc(CO)c3)cc2F)nn1-c1ccccc1` yielded an IC50 [1] of 5.69 µM.
In the case of `Cc1cc(=O)c(C(=O)NCc2c(F)cc(-c3cncnc3)cc2F)nn1-c1ccccc1`, the IC50 [1] is reported as 13.8 µM.
For `CC(=O)c1cccc(-c2cc(F)c(CNC(=O)c3nn(-c4ccccc4)c(C)cc3=O)c(F)c2)c1`, the IC50 [1] was 8.13 µM.
Molecule `Cc1cc(=O)c(C(=O)NCc2c(F)cc(N3CC[C@@H](F)C3)cc2F)nn1-c1cccc(CC(=O)O)c1` has an IC50 [1] of 1.43 µM.
With `Cc1cc(=O)c(C(=O)NCc2c(F)cc(C3=CC(=O)CCC3)cc2F)nn1-c1ccccc1` the IC50 [1] was 1.58 µM.
In the case of `Cc1cc(=O)c(C(=O)NCc2c(F)cc(-c3cccc(S(=O)(=O)F)c3)cc2F)nn1-c1cccc(C(=O)O)c1`, the IC50 [1] is reported as 0.19 µM.
In the case of `Cc1cc(=O)c(C(=O)NCc2c(F)cc(-c3cccc(S(=O)(=O)O)c3)cc2F)nn1-c1ccccc1`, the IC50 [1] is reported as 0.91 µM.
With `Cc1cc(=O)c(C(=O)NCc2c(F)cc(N3CC[C@H](F)C3)cc2F)nn1-c1cccc(C(=O)O)c1` the IC50 [1] was 0.64 µM.
Work on `Cc1cc(=O)c(C(=O)NCc2c(F)cc(-c3ccccc3)cc2F)nn1-c1cccnc1` yielded an IC50 [1] of 25.4 µM.
In the case of `Cc1cc(=O)c(C(=O)NCc2c(F)cc(N3CC[C@@H](F)C3)cc2F)nn1-c1cccc(CC(N)=O)c1`, the IC50 [1] is reported as 3.15 µM.
With `Cc1cc(=O)c(O)c(C(=O)NCc2ccc(-c3ccccc3C#N)cc2)o1` the IC50 [1] was 13.9 µM.
Molecule `Cc1cc(=O)c(C(=O)NCc2c(F)cc(N3CC[C@H](F)C3)cc2F)nn1-c1cccc(C(N)=O)c1` has an IC50 [1] of 0.95 µM.
`Cc1cc(=O)c(C(=O)NCc2c(F)cc(N3CC[C@@H](O)C3)cc2F)nn1-c1ccccc1` showed an IC50 [1] of 3.72 µM.
`Cc1cc(=O)c(C(=O)NCc2c(F)cc(-c3cccc(S(=O)(=O)F)c3)cc2F)nn1-c1ccccc1` gave a GI50 [2] of 4.2 µM, a GI50 [3] of 15.4 µM and a GI50 [4] of 4.3 µM. It also gave a GI50 [5] of 7.1 µM, a GI50 [6] of 4.6 µM and a microsomal CLint [7] of 46.9 µL/min/mg. For the same molecule, the Activity [8] was “Dose-Dependent Effect”, the Papp at 1.5 h [9] was 1.77 ×10⁻⁶ cm/s and the IC50 [10] was 5.8 µM. For the same molecule, the IC50 [1] was 0.39 µM, the IC50 [11] was 2.09 µM and the IC50 [12] was 0.79 µM. For the same molecule, the IC50 [13] was 0.3 µM, the IC50 [14] was 0.17 µM and the IC50 [15] was 0.1 µM. It also gave an inhibition [16] of 59.3%, an inhibition [17] of 64% and an inhibition [18] of 78.5%. For the same molecule, the inhibition [19] was 88.5%, the inhibition [20] was 91.9% and the inhibition [21] was “Dose-Dependent Effect”. The inhibition [22] was “inactive”, the inhibition [23] was “inactive” and the IC50 [24] was 4.8 µM. The inhibition [25] was “inactive”, the Activity [26] was “Dose-Dependent Effect” and the Activity [27] was “Dose-Dependent Effect”. The Activity [28] was “Dose-Dependent Effect”, the GI50 [29] was 16.6 µM and the GI50 [30] was 9.4 µM. The GI50 [31] was 22.6 µM, the Activity [32] was “inactive” and the Activity [33] was “inactive”. The Activity [34] was “inactive” and the Activity [35] was “inactive”.
With `Cc1cc(=O)c(C(=O)NCc2c(F)cc(N3CC[C@H](O)C3)cc2F)nn1-c1ccccc1` the IC50 [1] was 5.67 µM.
